Experimental data from ChEMBL document CHEMBL1142141, “Molecular mechanism of flucytosine resistance in Candida lusitaniae: contribution of the FCY2, FCY1, and FUR1 genes to 5-fluorouracil and fluconazole cross-resistance” (2007).
Values after ≈ are worked out from the molar mass of the structure shown.

Key:
Assay type in all cases: functional
Clavispora lusitaniae [1] = test: Antifungal activity against Candida lusitaniae 6936 URA3[D95V] derived null mutant fur1delta::URA3 by microdilution assay
Clavispora lusitaniae [2] = test: Antifungal activity against Candida lusitaniae 6936 URA3[D95V] derived null mutant fcy2delta::URA3 by microdilution assay
Clavispora lusitaniae [3] = test: Antifungal activity against Candida lusitaniae 6936 revertant fcy2delta::[FCY2-URA3] by microdilution assay
Clavispora lusitaniae [4] = test: Antifungal activity against Candida lusitaniae 6936 revertant fcy1delta::[FCY1-URA3] by microdilution assay
Clavispora lusitaniae [5] = test: Antifungal activity against Candida lusitaniae 6936 URA3[D95V] derived null mutant fcy1delta::URA3 by microdilution assay
Clavispora lusitaniae [6] = test: Antifungal activity against Candida lusitaniae 6936 by microdilution assay

| Structure (SMILES) | MIC (Clavispora lusitaniae [1]) [mg/L] | MIC (Clavispora lusitaniae [2]) [mg/L] | MIC (Clavispora lusitaniae [3]) [mg/L] | MIC (Clavispora lusitaniae [4]) [mg/L] | MIC (Clavispora lusitaniae [5]) [mg/L] | MIC (Clavispora lusitaniae [6]) [mg/L] |
| --- | --- | --- | --- | --- | --- | --- |
| OC(Cn1cncn1)(Cn1cncn1)c1ccc(F)cc1F [FLUCONAZOLE] | 2 (≈ 6.53 µM) | 2 (≈ 6.53 µM) | 2 (≈ 6.53 µM) | 2 (≈ 6.53 µM) | 2 (≈ 6.53 µM) | 2 (≈ 6.53 µM) |
| Nc1nc(=O)[nH]cc1F [FLUCYTOSINE] | ≥ 512 | 64 (≈ 496 µM) | ≤ 0.5 | ≤ 0.5 | 128 (≈ 992 µM) | ≤ 0.5 |
| O=c1[nH]cc(F)c(=O)[nH]1 [FLUOROURACIL] | ≥ 512 | ≤ 0.5 | ≤ 0.5 | ≤ 0.5 | ≤ 0.5 | ≤ 0.5 |
